Experimental data published in patent US20230036854A1, “HETEROCYCLIC SPIRO-COMPOUNDS AS AM2 RECEPTOR INHIBITORS” (THE UNIVERSITY OF SHEFFIELD, priority 2018, published 2023).

Molecular target: T1, AM2 receptor (1321N1 cells transfected with CALCRL+RAMP3) (Homo sapiens, UniProt O60896+Q16602)
T1 construct: host or cells: 1321N1 cells
Test: AM2 receptor inhibition, LANCE cAMP agonist-antagonist competition assay
Type: cell-based
Conditions: inhibition of AM induced cAMP activation, read-out: AM2 D2 protocol: pIC50 (converted)
How it was run: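 1321N1 cells co-expressing CALCRL and RAMP3 (2500/well) were preincubated with compound for 30 min at room temperature, then stimulated with adrenomedullin at its EC50 dose for 15 min in HBSS/HEPES/BSA buffer, pH 7.4. cAMP was measured by LANCE TR-FRET and normalised to forskolin (100%) and vehicle (0%) controls.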

T1 sequence (Q16602 23-461): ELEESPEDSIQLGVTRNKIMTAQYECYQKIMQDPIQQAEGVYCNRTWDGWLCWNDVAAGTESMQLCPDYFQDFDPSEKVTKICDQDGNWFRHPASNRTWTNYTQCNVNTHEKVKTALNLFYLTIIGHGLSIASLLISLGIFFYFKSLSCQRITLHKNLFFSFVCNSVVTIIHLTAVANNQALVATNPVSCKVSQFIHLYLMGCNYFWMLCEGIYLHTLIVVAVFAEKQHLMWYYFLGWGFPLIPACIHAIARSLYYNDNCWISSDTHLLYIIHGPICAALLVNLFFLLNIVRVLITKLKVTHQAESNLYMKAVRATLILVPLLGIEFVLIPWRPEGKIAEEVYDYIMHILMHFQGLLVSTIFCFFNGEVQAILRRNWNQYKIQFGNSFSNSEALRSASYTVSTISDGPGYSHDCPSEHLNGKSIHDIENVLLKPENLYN
T1 sequence (O60896 24-148): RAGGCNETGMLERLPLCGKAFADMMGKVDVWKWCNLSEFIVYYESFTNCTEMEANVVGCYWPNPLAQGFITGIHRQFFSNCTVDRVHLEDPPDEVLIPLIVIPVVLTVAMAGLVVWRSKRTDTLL

Row | SMILES | IC50
1 | CNCc1ccccc1CN(CC(=O)Nc1ccc2c(c1)C[C@@]1(C2)C(=O)Nc2ncccc21)C(=O)C1(C)CCN(C(=O)N2CCNCC2)CC1 [Example 56, (R)-4-Methyl-N-(2-((methylamino)methyl)benzyl)-N-(2-oxo-2-((2′-oxo-1,1′,2′,3-tetrahydrospiro[indene-2,3′-pyrrolo[2,3-b]pyridin]-5-yl)amino)ethyl)-1-(piperazine-1-carbonyl)piperidine-4-carboxamide] | 13.2 nM
2 | CNCc1ccccc1CN(CC(=O)Nc1ccc2c(c1)C[C@@]1(C2)C(=O)Nc2ncccc21)C(=O)C1(C)CCN(C(=O)N2CCCC2)CC1 [Example 57, (R)-4-Methyl-N-(2-((methylamino)methyl)benzyl)-N-(2-oxo-2-((2′-oxo-1,1′,2′,3-tetrahydrospiro[indene-2,3′-pyrrolo[2,3-b]pyridin]-5-yl)amino)ethyl)-1-(pyrrolidine-1-carbonyl)piperidine-4-carboxamide] | 3.63 nM
3 | CNCc1ccccc1CN(CC(=O)Nc1ccc2c(c1)C[C@@]1(C2)C(=O)Nc2ncccc21)C(=O)C1(C)CCN(C(C)=N)CC1 [Example 58, (R)-1-(1-Iminoethyl)-4-methyl-N-(2-((methylamino)methyl)benzyl)-N-(2-oxo-2-((2′-oxo-1,1′,2′,3-tetrahydrospiro[indene-2,3′-pyrrolo[2,3-b]pyridin]-5-yl)amino)ethyl)piperidine-4-carboxamide] | 2.34 nM
4 | CNCc1ccccc1CN(CC(=O)Nc1ccc2c(c1)C[C@@]1(C2)C(=O)Nc2ncccc21)C(=O)C1(C)CCN(c2cccnn2)CC1 [Example 59, (R)-4-Methyl-N-(2-((methylamino)methyl)benzyl)-N-(2-oxo-2-((2′-oxo-1,1′,2′,3-tetrahydrospiro[indene-2,3′-pyrrolo[2,3-b]pyridin]-5-yl)amino)ethyl)-1-(pyridazin-3-yl)piperidine-4-carboxamide] | 49 nM
5 | CNCc1ccccc1CN(CC(=O)Nc1ccc2c(c1)C[C@@]1(C2)C(=O)Nc2ncccc21)C(=O)C1(C)CCN(c2ncccn2)CC1 [Example 60] | 38 nM
6 | CNCc1ccccc1CN(CC(=O)Nc1ccc2c(c1)C[C@@]1(C2)C(=O)Nc2ncccc21)C(=O)C1(C)CCN(c2ccncn2)CC1 [Example 61] | 2.14 nM
7 | CNCc1ccccc1CN(CC(=O)Nc1ccc2c(c1)C[C@@]1(C2)C(=O)Nc2ncccc21)C(=O)C1(C)CCN(c2ccccn2)CC1 [Example 62] | 77.6 nM
8 | CNCc1ccccc1CN(CC(=O)Nc1ccc2c(c1)C[C@@]1(C2)C(=O)Nc2ncccc21)C(=O)C1(C)CCN(c2ccccc2)CC1 [Example 63, (R)-4-Methyl-N-(2-((methylamino)methyl)benzyl)-N-(2-oxo-2-((2′-oxo-1,1′,2′,3-tetrahydrospiro[indene-2,3′-pyrrolo[2,3-b]pyridin]-5-yl)amino)ethyl)-1-phenylpiperidine-4-carboxamide] | 14.5 nM
9 | CNCc1ccccc1CN(C(=O)C1(C)CCN(C(C)=O)CC1)[C@@H](C)C(=O)Nc1ccc2c(c1)C[C@@]1(C2)C(=O)Nc2ncccc21 [Example 66, 1-Acetyl-4-methyl-N-(2-((methylamino)methyl)benzyl)-N—((S)-1-oxo-1-(((R)-2′-oxo-1,1′,2′,3-tetrahydrospiro[indene-2,3′-pyrrolo[2,3-b]pyridin]-5-yl)amino)propan-2-yl)piperidine-4-carboxamide] | 457 nM
10 | CCC1(C(=O)N(CC(=O)Nc2ccc3c(c2)C[C@@]2(C3)C(=O)Nc3ncccc32)Cc2ccccc2CNC)CCNCC1 [Example 67, (R)-4-Ethyl-N-(2-((methylamino)methyl)benzyl)-N-(2-oxo-2-((2′-oxo-1,1′,2′,3-tetrahydrospiro[indene-2,3′-pyrrolo[2,3-b]pyridin]-5-yl)amino)ethyl)piperidine-4-carboxamide] | 0.575 nM
11 | CCC1(C(=O)N(CC(=O)Nc2ccc3c(c2)C[C@@]2(C3)C(=O)Nc3ncccc32)Cc2ccccc2CNC)CCN(C(C)=O)CC1 [Example 68, (R)-1-Acetyl-4-ethyl-N-(2-((methylamino)methyl)benzyl)-N-(2-oxo-2-((2′-oxo-1,1′,2′,3-tetrahydrospiro[indene-2,3′-pyrrolo[2,3-b]pyridin]-5-yl)amino)ethyl)piperidine-4-carboxamide] | 1.41 nM
12 | CCC1(C(=O)N(CC(=O)Nc2ccc3c(c2)C[C@@]2(C3)C(=O)Nc3ncccc32)Cc2ccccc2CNC)CCN(C(=O)C(C)(C)C)CC1 [Example 69, 1-(2,2-Dimethylpropanoyl)-4-ethyl-N-[[2-(methylaminomethyl)phenyl]methyl]-N-[2-oxo-2-[[(3R)-2-oxospiro[1H-pyrrolo[2,3-b]pyridine-3,2′-indane]-5′-yl]amino]ethyl]piperidine-4-carboxamide] | 30.2 nM
13 | CCC1(C(=O)N(CC(=O)Nc2ccc3c(c2)C[C@@]2(C3)C(=O)Nc3ncccc32)Cc2ccccc2CNC)CCN(C(=O)c2ccn(C)n2)CC1 [Example 70, (R)-4-Ethyl-1-(1-methyl-1H-pyrazole-3-carbonyl)-N-(2-((methylamino)methyl)benzyl)-N-(2-oxo-2-((2′-oxo-1,1′,2′,3-tetrahydrospiro[indene-2,3′-pyrrolo[2,3-b]pyridin]-5-yl)amino)ethyl)piperidine-4-carboxamide] | 2.24 nM
14 | CCC1(C(=O)N(CC(=O)Nc2ccc3c(c2)C[C@@]2(C3)C(=O)Nc3ncccc32)Cc2ccccc2CNC)CCN(C(=O)c2cc(C)n[nH]2)CC1 [Example 71, (R)-4-Ethyl-1-(3-methyl-1H-pyrazole-5-carbonyl)-N-(2-((methylamino)methyl)benzyl)-N-(2-oxo-2-((2′-oxo-1,1′,2′,3-tetrahydrospiro[indene-2,3′-pyrrolo[2,3-b]pyridin]-5-yl)amino)ethyl)piperidine-4-carboxamide] | 8.51 nM
15 | CCC1(C(=O)N(CC(=O)Nc2ccc3c(c2)C[C@@]2(C3)C(=O)Nc3ncccc32)Cc2ccccc2CNC)CCN(C(=O)C2CC2)CC1 [Example 72, (R)-1-(Cyclopropanecarbonyl)-4-ethyl-N-(2-((methylamino)methyl)benzyl)-N-(2-oxo-2-((2′-oxo-1,1′,2′,3-tetrahydrospiro[indene-2,3′-pyrrolo[2,3-b]pyridin]-5-yl)amino)ethyl)piperidine-4-carboxamide] | 8.71 nM
16 | CCC1(C(=O)N(CC(=O)Nc2ccc3c(c2)C[C@@]2(C3)C(=O)Nc3ncccc32)Cc2ccccc2CNC)CCN(C(=O)C(C)C)CC1 [Example 73, (R)-4-Ethyl-1-isobutyryl-N-(2-((methylamino)methyl)benzyl)-N-(2-oxo-2-((2′-oxo-1,1′,2′,3-tetrahydrospiro[indene-2,3′-pyrrolo[2,3-b]pyridin]-5-yl)amino)ethyl)piperidine-4-carboxamide] | 14.1 nM
17 | CCC1(C(=O)N(CC(=O)Nc2ccc3c(c2)C[C@@]2(C3)C(=O)Nc3ncccc32)Cc2ccccc2CNC)CCN(C(=O)COCCOCCOC)CC1 [Example 74, (R)-4-Ethyl-1-(2-(2-(2-methoxyethoxy)ethoxy)acetyl)-N-(2-((methylamino)methyl)benzyl)-N-(2-oxo-2-((2′-oxo-1,1′,2′,3-tetrahydrospiro[indene-2,3′-pyrrolo[2,3-b]pyridin]-5-yl)amino)ethyl)piperidine-4-carboxamide] | 8.71 nM
